Data: PubChem BioAssay AID2060485 (Molecular Pharmacology Branch, DTP, NCI, 2025)

Test system: A375 multi-cell spheroids with HUVEC/MSC, viability
Experiment: Anticancer human tumor A375 cell line growth inhibition [GQUAD];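 also: spheroids exposed to compounds for seven days before readout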
Conditions: for IC50: curve of first compound; for viability, T/C: stronger effect = lower value
Text: DNA G-quadruplex Stabilizer Agents in Combinations in Complex Spheroids
A high-throughput screen of multi-cell type tumor spheroids was designed to identify active combinations of DNA G-quadruplex stabilizer agents and targeted small molecules. Complex spheroids include a stromal component modeled by human endothelial cells (HUVEC) and fibroblasts modeled by human mesenchymal stem cells (MSCs). The concentration ranges selected for each drug and investigational agent were based upon clinically achievable concentrations if the clinical Cmax of the agent was known.
Compounds. The drugs and investigational agents: pidnarulex (CX-5461; NSC782164), APTO-253 (NSC789042), BRACO-19 (NSC847499), peposertib (NSC802822), ceralasertib (NSC780249), elimusertib (NSC800525), camonsertib (NSC841442), AZD-1390 (NSC803789), olaparib (NSC753686), talazoparib (NSC767125), ART-558 (NSC835418), sotorasib (NSC818433), MRTX-1133 (NSC836407), SN-38 (NSC673596), topotecan (NSC609699), etoposide (NSC141540), doxorubicin (NSC123127), gemcitabine (NSC613327), 5-fluorouracil (NSC19893), paclitaxel (NSC125973), vemurafenib (NSC761431), panobinostat (NSC761190), R-306465 (JNJ-16241199; NSC773264), adavosertib (NSC754352), TP-3654 (NSC805149), carboplatin (NSC241240), KSQ-4279 (NSC840948), and staurosporine (NSC755774) were obtained from the National Cancer Institute (NCI) Developmental Therapeutics Program Chemical Repository (34). The FDA-approved anticancer drug set is available from the NCI Developmental Therapeutics Program. […] The stock solutions were prepared in dimethyl sulfoxide (DMSO, Sigma-Aldrich, St. Louis, MO, cat. D2650) at 800-fold the tested concentration and stored at -70 degrees C prior to their use. All drugs and investigational agents were tested over a range starting from a high concentration at or near the clinical Cmax and decreasing in half-log increments. If the clinical Cmax for an agent had not been determined, the highest concentration tested was 10 microM.
2.3 Cell Culture. All cells were maintained in an incubator at 37 degrees C and 5% CO2 with 95% humidity. The PDC lines were cultured according to standard operating procedures established by the NCI PDMR. All PDCs were thawed and cultured in Matrigel-coated flasks prepared with a working solution of 1X Ham's F-12 nutrient mix, without supplementation (Invitrogen, cat. 11765054), 100 U/mL penicillin-streptomycin (Invitrogen, cat. 15140122), and 2.5% Matrigel (Corning Inc., cat. 354248) for the first three passages. The 857933-349-R-J2-PDC line was cultured in 6C/Colon 1B media, which includes advanced DMEM/F-12 (Thermo Fisher Scientific, cat. 12634028), 10 mM HEPES (Thermo Fisher Scientific, cat. 15630080), 1X GlutaMAX supplement (Thermo Fisher Scientific, cat. 35050061), 0.1 mg/mL primocin (InvivoGen, cat. ant-pm-2), 10% defined fetal bovine serum, heat inactivated (HyClone Laboratories Inc., cat. SH30070.03HI), 50% L-WRN conditioned media (ATCC, cat. CRL-3276), 1.25 mM N-Acetyl-L-cysteine (Sigma-Aldrich, cat. A9165), 10 mM nicotinamide (Sigma-Aldrich, cat. N0636), 1X B-27 supplement (Thermo Fisher Scientific, cat. 17504044), 1X N-2 supplement (Thermo Fisher Scientific, cat. 17502048), 10 microM Y-27632 dihydrochloride (Tocris Bioscience, cat. 1254), and 50 ng/mL human EGF recombinant protein (Thermo Fisher Scientific, cat. PHG0311). The 485176-168-R4-J1-PDC line was cultured in Panc media, which includes all 6C/Colon 1B media components plus 100 ng/mL human FGF-10 (Thermo Fisher Scientific, cat. 100-26), 500 nM SB-431542 (Selleckchem, cat. S1067), and gastrin (Tocris, cat. 3006).
[…]

[1] = second compound 0.0316 µM, first compound 0.0316 µM
[2] = second compound 0.0316 µM, first compound 0.1 µM
[3] = second compound 0.0316 µM, first compound 0.316 µM
[4] = second compound 0.0316 µM, first compound 1 µM
[5] = second compound 0.0316 µM, first compound 3.16 µM
[6] = second compound 0.0316 µM, first compound 10 µM
[7] = second compound 0.1 µM, first compound 0.0316 µM
[8] = second compound 0.1 µM, first compound 0.1 µM
[9] = second compound 0.1 µM, first compound 0.316 µM
[10] = second compound 0.1 µM, first compound 1 µM
[11] = second compound 0.1 µM, first compound 3.16 µM
[12] = second compound 0.1 µM, first compound 10 µM
[13] = second compound 0.316 µM, first compound 0.0316 µM
[14] = second compound 0.316 µM, first compound 0.1 µM
[15] = second compound 0.316 µM, first compound 0.316 µM
[16] = second compound 0.316 µM, first compound 1 µM
[17] = second compound 0.316 µM, first compound 3.16 µM
[18] = second compound 0.316 µM, first compound 10 µM
[19] = second compound 1 µM, first compound 0.0316 µM
[20] = second compound 1 µM, first compound 0.1 µM
[21] = second compound 1 µM, first compound 0.316 µM
[22] = second compound 1 µM, first compound 1 µM
[23] = second compound 1 µM, first compound 3.16 µM
[24] = second compound 1 µM, first compound 10 µM
[25] = second compound 3.16 µM, first compound 0.0316 µM
[26] = second compound 3.16 µM, first compound 0.1 µM
[27] = second compound 3.16 µM, first compound 0.316 µM
[28] = second compound 3.16 µM, first compound 1 µM
[29] = second compound 3.16 µM, first compound 3.16 µM
[30] = second compound 3.16 µM, first compound 10 µM
[31] = second compound 10 µM, first compound 0.0316 µM
[32] = second compound 10 µM, first compound 0.1 µM
[33] = second compound 10 µM, first compound 0.316 µM
[34] = second compound 10 µM, first compound 1 µM
[35] = second compound 10 µM, first compound 3.16 µM
[36] = second compound 10 µM, first compound 10 µM

Structure (SMILES): CC1COCCN1c1cc(-c2ccnn2C)c2ccnc(-c3ccn[nH]3)c2n1 (centres undefined) + CN(C)c1ccc(Nc2c3ccc(NC(=O)CCN4CCCC4)cc3nc3cc(NC(=O)CCN4CCCC4)ccc23)cc1
- IC50 (second compound 0.0316 µM): 0.308 µM
- IC50 (second compound 0.1 µM): 0.303 µM
- IC50 (second compound 0.316 µM): 0.344 µM
- IC50 (second compound 1 µM): 0.339 µM
- IC50 (second compound 3.16 µM): 0.319 µM
- IC50 (second compound 10 µM): 0.283 µM
- viability, T/C [1]: 105%
- viability, T/C [2]: 78.3%
- viability, T/C [3]: 50.8%
- viability, T/C [4]: 25.8%
- viability, T/C [5]: 10%
- viability, T/C [6]: 9.41%
- viability, T/C [7]: 114%
- viability, T/C [8]: 82%
- viability, T/C [9]: 48.8%
- viability, T/C [10]: 26.6%
- viability, T/C [11]: 10.1%
- viability, T/C [12]: 9.57%
- viability, T/C [13]: 111%
- viability, T/C [14]: 82.6%
- viability, T/C [15]: 53.6%
- viability, T/C [16]: 26.7%
- viability, T/C [17]: 11.1%
- viability, T/C [18]: 9.6%
- viability, T/C [19]: 108%
- viability, T/C [20]: 82.9%
- viability, T/C [21]: 51.4%
- viability, T/C [22]: 27.5%
- viability, T/C [23]: 11.2%
- viability, T/C [24]: 8.68%
- viability, T/C [25]: 110%
- viability, T/C [26]: 83.9%
- viability, T/C [27]: 48.9%
- viability, T/C [28]: 28.2%
- viability, T/C [29]: 10.8%
- viability, T/C [30]: 10.2%
- viability, T/C [31]: 97.7%
- viability, T/C [32]: 74.2%
- viability, T/C [33]: 47.3%
- viability, T/C [34]: 27.6%
- viability, T/C [35]: 11.1%
- viability, T/C [36]: 9.62%

Structure (SMILES): CCCS(=O)(=O)Nc1ccc(F)c(C(=O)c2c[nH]c3ncc(-c4ccc(Cl)cc4)cc23)c1F + CN(C)c1ccc(Nc2c3ccc(NC(=O)CCN4CCCC4)cc3nc3cc(NC(=O)CCN4CCCC4)ccc23)cc1
- IC50 (second compound 0.0316 µM): < 0.0316 µM
- IC50 (second compound 0.1 µM): < 0.0316 µM
- IC50 (second compound 0.316 µM): < 0.0316 µM
- IC50 (second compound 1 µM): < 0.0316 µM
- IC50 (second compound 3.16 µM): < 0.0316 µM
- IC50 (second compound 10 µM): < 0.0316 µM
- viability, T/C [1]: 40.3%
- viability, T/C [2]: 14.1%
- viability, T/C [3]: 8.13%
- viability, T/C [4]: 6.52%
- viability, T/C [5]: 4.92%
- viability, T/C [6]: 5.69%
- viability, T/C [7]: 45%
- viability, T/C [8]: 14.1%
- viability, T/C [9]: 7.72%
- viability, T/C [10]: 6.32%
- viability, T/C [11]: 5.28%
- viability, T/C [12]: 5.54%
- viability, T/C [13]: 39.4%
- viability, T/C [14]: 14.7%
- viability, T/C [15]: 8.27%
- viability, T/C [16]: 6.77%
- viability, T/C [17]: 4.48%
- viability, T/C [18]: 4.46%
- viability, T/C [19]: 34.9%
- viability, T/C [20]: 15%
- viability, T/C [21]: 7.95%
- viability, T/C [22]: 6.06%
- viability, T/C [23]: 4.78%
- viability, T/C [24]: 2.9%
- viability, T/C [25]: 36.5%
- viability, T/C [26]: 14.8%
- viability, T/C [27]: 6.95%
- viability, T/C [28]: 5.84%
- viability, T/C [29]: 4.55%
- viability, T/C [30]: 0.61%
- viability, T/C [31]: 36.9%
- viability, T/C [32]: 12.4%
- viability, T/C [33]: 7%
- viability, T/C [34]: 5.45%
- viability, T/C [35]: 4.34%
- viability, T/C [36]: 0.17%
